Counter-ions that a name gives are not always drawn. Like-named read-outs stand apart in the source and are kept apart here.
How the values were obtained:
[1] = molecular target: T1, human dopamine D4 receptor subtype (Homo sapiens, UniProt P21917); test: D4 receptor binding, [3H]YM-09151-2 displacement
T1 construct: expressed in transfected cells
T1 sequence (P21917 1-419): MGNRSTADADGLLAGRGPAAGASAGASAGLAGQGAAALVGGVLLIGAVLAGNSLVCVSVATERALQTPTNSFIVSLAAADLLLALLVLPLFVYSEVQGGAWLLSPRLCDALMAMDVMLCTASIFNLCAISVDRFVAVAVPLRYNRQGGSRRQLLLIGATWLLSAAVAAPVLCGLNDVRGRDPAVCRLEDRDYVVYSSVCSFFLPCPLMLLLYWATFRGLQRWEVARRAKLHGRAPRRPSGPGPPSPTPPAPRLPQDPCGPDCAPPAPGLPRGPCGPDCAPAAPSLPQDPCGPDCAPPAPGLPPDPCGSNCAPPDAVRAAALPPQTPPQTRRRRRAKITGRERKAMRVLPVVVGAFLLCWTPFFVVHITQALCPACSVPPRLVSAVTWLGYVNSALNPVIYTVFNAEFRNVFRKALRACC
Description: Assay for D4 receptor binding activity
Clonal cell lines expressing the human dopamine D4 receptor subtype were harvested in PBS and the cells centrifuged and the pellets stored at -80° C. until used in the binding assay. The pellets were resuspended and the cells lysed at 4° C. in 50 mM Tris pH 7.4 buffer containing 120 mM NaCl, 1 mM EDTA and 5 mM MgCl2. The homogenate is centrifuged at 48000× g for 10 minutes at 4° C. The resulting pellet is resuspended in fresh buffer and centrifuged again. After resuspension of the pellet in fresh buffer a […] aliquot is removed for protein determination. The remaining homogenate is centrifuged as above, the supernatant removed and the pellet stored at 4° C. until needed; at which time it is resuspended to a final concentration of […] with 50 mM Tris buffer (pH 7.4) and 120 mM NaCl just prior to use. Incubations were carried out for 60 minutes at 25° C. in the presence of 0.1 nM [^3 H] YM-09151-2. The incubation was terminated by rapid filtration through Whatman GF/C filters and rinsed with 2×4 ml washes of chiled 50 mM Tris (pH 7.4) and 120 mM NaCl. Non-specific binding was determined with 1 mM spiperone and radioactivity determined by counting in an LKB beta counter. Binding parameters were determined by non-linear least squares regression analysis, from which the inhibition constant Ki could be calculated for each test compound. The binding characteristics of some examples of this patent are shown in Table 2 for the dopamine D4 binding assay.

D2 receptor = D2 receptor (Rattus norvegicus, UniProt P61169); test: biochemical; assay type: binding
Chain of D2 receptor (P61169 whole entry): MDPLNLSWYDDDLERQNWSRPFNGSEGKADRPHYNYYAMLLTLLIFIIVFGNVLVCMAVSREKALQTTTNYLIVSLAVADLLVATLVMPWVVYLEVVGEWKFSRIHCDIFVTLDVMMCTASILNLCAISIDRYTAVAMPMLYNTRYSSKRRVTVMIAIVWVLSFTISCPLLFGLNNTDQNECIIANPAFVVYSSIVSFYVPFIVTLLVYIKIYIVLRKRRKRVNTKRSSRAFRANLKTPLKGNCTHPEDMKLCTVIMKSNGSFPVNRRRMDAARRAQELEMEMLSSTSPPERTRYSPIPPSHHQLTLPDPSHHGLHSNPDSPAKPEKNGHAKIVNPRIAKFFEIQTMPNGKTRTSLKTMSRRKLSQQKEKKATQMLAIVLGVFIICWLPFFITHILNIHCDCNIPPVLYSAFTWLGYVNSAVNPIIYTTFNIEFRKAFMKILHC
Description: (§1) Assay for D2 and D3 receptor binding activity
(§2) Striatial tissue is dissected from adult male Sprague Dawley rats or BHK 293 cells are harvested containing recombinantly produced D2 or D3 receptors. The sample is homogenized in 100 volumes (w/vol) of 0.05 M Tris HCl buffer at 4° C. and pH 7.4. The sample is then centrifuged at 30,000× g and resuspended and rehomogenized. The sample is then centrifuged as described and the final tissue sample is frozen until use. The tissue is resuspended 1:20 (wt/vol) in 0.05 M Tris HCl buffer containing 100 mM NaCl.
(§3) Incubations are carried out at 48° C. and contain 0.5 ml of tissue sample, 0.5 nM ^3 H-raclopride and the compound of interest in a total incubation of 1.0 ml.

D3 receptor = D3 receptor binding, [3H]raclopride displacement; settings: 0.5 nM 3H-raclopride; recombinantly produced D3 receptors, BHK 293 cells
Description: as §1, §2, §3

[2] = 0.1 nM [3H]YM-09151-2, 60 min, 25° C., clonal cell lines expressing human D4 (Table 2), read-out: Ki
[3] = 0.5 nM 3H-raclopride, rat striatal homogenates (Table 1), read-out: D2 binding IC50

Row | SMILES | Ki [1, 2] [nM] | IC50 (D2 receptor; [3]) [nM] | IC50 (D3 receptor) [nM] | Ki [1] [nM] | IC50 (D2 receptor) [nM]
1 | COc1ccc(-c2ccccc2)cc1CN1CCN(c2ncccn2)CC1 [Compound 1, 4phenyl-2-[(4-(2-pyrimidinyl)-piperazinyl)methyl]-anisole dihydrochloride] | 32 | 175 |  |  | 
2 | COc1ccc(CN2CCN(c3ncccn3)CC2)cc1-c1ccccc1 [Compound 2, 2-phenyl-4-[(4-(2-pyrimidinyl)-piperazinyl)methyl]anisole dihydrochloride] | 243 |  |  |  | 
3 | C1=C(c2ccccc2)CCN(Cc2cccc(-c3ccccc3)c2)C1 [Compound 3, 3-[(4-1,2,3,6-tetrahydropyridin-1-yl)methyl]biphenyl hydrochloride] |  |  | 12 | 18 | 12
4 | c1ccc(-c2cccc(CN3CCC(c4ccccc4)CC3)c2)cc1 [Compound 4, 3-[(4phenyl-piperidin-1-yl)methyl]biphenyl hydrochloride] | 28 | 5 | 61 |  | 
5 | Cc1cc(-c2ccccc2)ccc1CN1CCC(Cc2ccccc2)CC1 [Compound 5, 3-phenyl-6-[(4-benzyl-piperidin-1-yl)methyl]toluenehydrochloride] | 286 |  | 2490 |  | 

More lines, main results first:

Row | Ki [1, 2] [nM] | IC50 (D2 receptor; [3]) [nM] | IC50 (D3 receptor) [nM] | SMILES | Ki [1] [nM] | IC50 (D2 receptor) [nM]
6 | > 75 |  | 6120 | CC(c1cccc(-c2ccccc2)c1)N(C)Cc1ccccc1 (centres unmarked) [Compound 6, N-(1-(3-biphenyl)ethyl-N-methylbenzylamine hydrochloride] |  | 
7 | > 75 |  | 342 | COc1ccccc1N1CCN(C(C)c2cccc(-c3ccccc3)c2)CC1 (centres unmarked) [Compound 7, 1-(2-methoxyphenyl)-4-(1-(3-biphenyl)ethyl)piperazine dihydrochloride] |  | 
8 | 1050 | 1940 |  | c1ccc(-c2cc(CN3CCN(c4ncccn4)CC3)cc(-c3ccccc3)c2)cc1 [Compound 8, 1-(2-pyrimidyl)-4-((3,5-diphenylphenyl)methyl)piperazine dihydrochloride] |  | 
9 | 56 | 290 |  | c1ccc(CC2CCN(Cc3ccnc(-c4ccccc4)c3)CC2)cc1 [Compound 9, 2-phenyl-4-[(4-benzyl-piperidin-1-yl)methyl]-pyridine dihydrochloride] |  | 
10 | 769 |  | 1140 | c1ccc(CC2CCN(Cc3cccc(-c4ccccc4)n3)CC2)cc1 [Compound 10, 2-Phenyl-6-[(4benzyl-piperidin-1-yl)methyl]-pyridine] |  | 
11 | 600 |  | 1610 | c1ccc(CC2CCN(Cc3ccnc(-c4ccccc4)n3)CC2)cc1 [Compound 11, 2-phenyl-4-[(4-benzyl-piperidin-1-yl)methyl]-pyrimidine dihydrochloride] |  | 
